# Data taken from article PMC4608799, “Structural and Functional Analysis of Murine Polyomavirus Capsid Proteins Establish the Determinants of Ligand Recognition and Pathogenicity” (PLoS Pathogens, 2015).
# Experiments:
# [1] = target: T1, RA VP1 (Mouse polyomavirus (strain p16 small-plaque), UniProt P49302); assay: concentration-dependent crystal soaking, electron density quantified; assay type: binding; settings: 1.5 M ammonium sulfate (competes with the Neu5Ac carboxylate), 20 C crystals, 30 min soak
# T1 construct: residues 33-316, homopentamer; N-terminal His-tag cut by thrombin leaving GSHM; pET15b, E. coli BL21
# [2] = target: T2, PTA VP1 (Alphapolyomavirus muris, UniProt A0A247D727); assay: X-ray crystal structure of complex; settings: receptor-binding pocket
# T2 construct: residues 33-316, homopentamer; N-terminal His-tag cut by thrombin leaving GSHM; pET15b, E. coli BL21
compound,measurement,setting,value
CC(=O)N[C@H]1[C@H](O[C@H]2[C@@H](O)[C@@H](CO)O[C@@H](O[C@H]3[C@H](O)[C@@H](O)C(O)O[C@@H]3CO)[C@@H]2O)O[C@H](CO[C@]2(C(=O)O)C[C@H](O)[C@@H](NC(C)=O)[C@H]([C@H](O)[C@H](O)CO)O2)[C@@H](O)[C@@H]1O[C@@H]1O[C@H](CO)[C@H](O)[C@H](O[C@]2(C(=O)O)C[C@H](O)[C@@H](NC(C)=O)[C@H]([C@H](O)[C@H](O)CO)O2)[C@H]1O (some centres unmarked) [DSLNT],"concentration-dependent crystal soaking, electron density quantified",[1],"Electron density of GT1a, GD1a, and DSLNT in RA VP1"
"CC(=O)N[C@H]1[C@H]([C@H](O)[C@H](O)CO)O[C@@](O[C@H](CO)[C@@H](O)[C@@H]2O[C@@](O[C@H]3[C@@H](O)[C@@H](CO)O[C@@H](O[C@H]4[C@H](O)[C@@H](O)C(O)O[C@@H]4CO)[C@@H]3O)(C(=O)O)C[C@H](O)[C@H]2NC(C)=O)(C(=O)O)C[C@@H]1O (some centres unmarked) [GD3, glycan portion of GD3]",X-ray crystal structure of complex,[2],the crystal structure of PTA with the glycan portion of GD3 shows an identical binding mechanism
